Measurements published in patent US12440469B2, “P-gp inducers as protectors against chemotherapy-induced side effects, such as peripheral neuropathy (CIPN) and hair loss” (Syddansk Universitet, priority 2019, dated 2025).
Values belong to the compound of their own block, whether it stands above or below them.

Key:
[1] = test system: paclitaxel treated patients with breast or ovarian cancer; assay: Paclitaxel dose modification due to peripheral neuropathy in patients using P-gp inhibitors (logistic regression); format: in vivo, human; conditions: for Multivariate analysis Odds-ratio of paclitaxel dose modification due to peripheral neuropathy: adjusted for age, body surface, tumor type, cancer stage, treatment schedule and previous chemotherapy; for Univariate analysis Odds-ratio of paclitaxel dose modification due to peripheral neuropathy: concomitant use with paclitaxel, 503 patients database; for increased risk of dose modification due to peripheral neuropathy: paclitaxel-treated patients, text summary of the multivariate analysis
From the text: Data were log-transformed to ensure normality of data.
To assess if P-gp inhibition leads to increased risk of peripheral neuropathy we used a previously described database of 503 paclitaxel treated patients with breast or ovarian cancer (Sanchez-Barroso L et al. The Oncologist. 2018 Nov. 23). […] P-gp inhibitors were selected based on two literature reviews (see comments under table 1). From these reviews, we identified drugs listed as P-gp inhibitors (drugs classified as inhibitor in either review), and, within these, strong P-gp inhibitors (drugs classified as inhibitor in both reviews).
The association from univariate and multivariate analysis between paclitaxel dose modification due to peripheral neuropathy and concomitant P-gp inhibitor use is shown in Table 1.

[2] = test system: iPSC-derived sensory neurons; assay: Vincristine neurotoxicity in iPSC-derived sensory neurons with or without MK-571 or rifampicin; format: cell-based, human
From the text: Sensory neurons were generated from human induced pluripotent stem cells (iPSCs) by implementing the well-established protocol by Chambers et. al. (Nat Biotech 2012). The neuronal differentiation was initiated when iPSCs achieved 70-80% confluency using KSR medium, which contained 82% KnockOut DMEM (Gibco, 10829-018) and 15% KnockOut Serum Replacement (KSR, ThermoFisher, 10828-028), 1% GlutaMAX-I (Gibco, 35050-038), 1% mini-mum essential medium non-essential amino acids (MEM-NEAA, Gibco, 11140-035), 1% P/S and 0.055 mM β-mercaptoethanol (Gibco, 21985023).
On days 0-5, SMAD signaling was inhibited by adding 0.1 μM LDN-193189 (Selleck, S7507) and 10 μM SB-431542 (Selleck, S1067) to the medium. Medium was changed daily, and N2 medium was added with 25% increments every other day starting on day 4 (100% N2 on day 10). N2 medium consists of 97% Neurobasal medium (Gibco, 21103-049) with 1% N2 Supplement (Gibco, 17502-048), 1% B27 Supplement (Gibco, 17504-044) and 1% P/S. On days 2-10, nociceptor induction was initiated with the addition of the three inhibitors, 3 μM CHIR99021 (Selleck, S1263), 10 μM SU5402 (Selleck, S7667) and 10 μM DAPT (Selleck, S2215).
For long-term cultivation starting on day 12, cells were washed with PBS÷ and incubated with Accutase for 30 min to obtain a single-cell suspension. After incubation, the culture plates were gently rocked and cellular clumps were mechanically dissociated by pipetting up and down. The cells were filtered through a 40 μm nylon cell strainer (Corning, 431750) and centrifuged (800 rpm, 5 min, RT). Following resuspension of the pellet, iPSC-SNs were seeded as single cells on PLO/LAM/FN-coated culture plates at a density of 150,000 viable cells/cm^2. […]
Cells were treated with vincristine from 0.001-1 μM for 24 hours and immunolabeled with peripherin antibody. Quantification of network was done using ImageJ and MIPAR. […]

[3] = test system: SH-SY5Y-derived neurons; assay: Neurite number and length in differentiated SH-SY5Y cells after paclitaxel with or without valspodar
Method: (§1) SH-SY5Y cells (94030304, Sigma-Aldrich) were kept in DMEM/F:12 (11320074, ThermoFisher) with 15% heat-inactivated fetal bovine serum (hiFBS, F9665 Sigma-Aldrich), 1% penicillin/streptomycin (p/s) and 2 mM glutamine. Cells were split 1:10-1:20 using 0.05% trypsin-EDTA (10779413, Fisher Scientific) at 70-80% confluence.
(§2) Paclitaxel (T7402, Sigma-Aldrich) was diluted serially in DMSO (D2650, Sigma-Aldrich) and these stock solutions diluted 1:500 to ensure 0.2% DMSO in all samples. […] Valspodar (SML0572, Sigma-Aldrich) were used at a final concentration of 4 μM. Antibody against TUBB3 (MA1-118, ThermoFisher Scientific) was used at 1:1000.
(§3) Briefly, SH-SY5Y cells below passage 15 were seeded at 5-6×10^3 cells/cm^2 in uncoated 6-well plates (day 0 (D0)) and left overnight in growth media. The next day (D1) differentiation was initiated using DMEM/F:12 media with 2.5% hiFBS, 1% p/s, 2 mM glutamine and 10 μM retinoic acid (RA, R2625 Sigma-Aldrich) and media was replaced at D3 and D5. On D7 cells were split 1:1 using 0.05% trypsin-EDTA to uncoated dishes and on D8 hiFBS content was reduced to 1%. On D10 the cells were split 1:1 to extracellular matrix-coated dishes (E0282, Sigma-Aldrich). On D11 media was replaced with the final differentiation media containing neurobasal media (21103049, ThermoFisher) with 1×B27 supplement (17504044, ThermoFisher), 20 mM KCl (10697623, Fisher Scientific), 1% p/s, 1× Glutamax, 50 ng/ml brain-derived neurotrophic factor (BDNF, CST-3897S, Peprotech), 2 mM dibutyryl cyclic AMP (db-cAMP, D0627 Sigma-Aldrich) and 10 μM RA. Media was replaced on D14 and D17 and cells were tested and confirmed as fully differentiated on D18 and used for downstream applications as outlined below.
(§4) Both differentiated and undifferentiated SH-SY5Y cells were fixed using 4% paraformaldehyde. Cells were permeabilized using 0.25% Triton X-100 and unspecific binding was blocked using bovine serum albumin (BSA). Primary antibodies were incubated overnight at 4° C. and secondary antibodies were incubated for one hour at room temperature. Nuclei were stained using 1.5 μM DAPI for 5 minutes. Imaging was performed using a Leica DMI4000B microscope. Neurite morphology was assessed using the ImageJ modules CellCounter and Simple Neurite Tracer. To determine number of neurites per cell, CellCounter was used to count the number of cells with 0, 1, 2 . . . n neurites. Neurite length was determined using Simple Neurite Tracer. For both endpoints, at least five images of each condition from three separate differentiations were used. ImageJ analysis was blinded to the person assessing length and number of neurites to ensure no bias. […]

[4] = biological target: T1, P-gp (Homo sapiens, UniProt P08183); assay: Intracellular paclitaxel concentration (LC-MS/MS) in differentiated SH-SY5Y cells under P-gp inhibition; format: cell-based; conditions: 10 μM paclitaxel, 1 hour, P-gp inhibition by 4 μM valspodar, p<0.001
T1 construct: indicated expression of the efflux transporters P-gp and MRP1 in both SH-SY5Y cells and human dorsal root ganglion; endogenous in cells; host or cells: differentiated SH-SY5Y cells (neurons)

[5] = test system: sensory neurons derived from induced pluripotent stem cells; assay: Paclitaxel damage in iPSC-derived sensory neurons, peripherin immunolabelling; format: cell-based, human; conditions: paclitaxel 24 hours
Method: Cells were treated with paclitaxel for 24 hours and immunolabeled using an antibody for peripherin.
Cells were pretreated for 48 hours with 25 μM rifampicin prior to addition of paclitaxel treatment.

[6] = test system: TRPV1; assay: TRPV1 expression in iPSC-derived sensory neurons (RT-qPCR); format: cell-based, human; conditions: paclitaxel, dose-dependent
Method: (§5) Induced pluripotent stem cells were differentiated to sensory neurons for 35-40 days as described above. Rifampicin was added 48 hours ahead of paclitaxel to increase expression of efflux transporters. Expression levels was determined using real-time qualitative polymerase chain reaction (RT-qPCR) for TRPV1 and ATF-3.

[7] = test system: ATF-3; assay: ATF-3 expression in iPSC-derived sensory neurons (RT-qPCR); format: cell-based, human; conditions: paclitaxel, dose-dependent
Method: as §5

[8] = test system: SH-SY5Y-derived neurons
Method: as §1, §2, §3, §4

[9] = vincristine 0.001-1 μM, 24 hours

T1 sequence (P08183 whole entry): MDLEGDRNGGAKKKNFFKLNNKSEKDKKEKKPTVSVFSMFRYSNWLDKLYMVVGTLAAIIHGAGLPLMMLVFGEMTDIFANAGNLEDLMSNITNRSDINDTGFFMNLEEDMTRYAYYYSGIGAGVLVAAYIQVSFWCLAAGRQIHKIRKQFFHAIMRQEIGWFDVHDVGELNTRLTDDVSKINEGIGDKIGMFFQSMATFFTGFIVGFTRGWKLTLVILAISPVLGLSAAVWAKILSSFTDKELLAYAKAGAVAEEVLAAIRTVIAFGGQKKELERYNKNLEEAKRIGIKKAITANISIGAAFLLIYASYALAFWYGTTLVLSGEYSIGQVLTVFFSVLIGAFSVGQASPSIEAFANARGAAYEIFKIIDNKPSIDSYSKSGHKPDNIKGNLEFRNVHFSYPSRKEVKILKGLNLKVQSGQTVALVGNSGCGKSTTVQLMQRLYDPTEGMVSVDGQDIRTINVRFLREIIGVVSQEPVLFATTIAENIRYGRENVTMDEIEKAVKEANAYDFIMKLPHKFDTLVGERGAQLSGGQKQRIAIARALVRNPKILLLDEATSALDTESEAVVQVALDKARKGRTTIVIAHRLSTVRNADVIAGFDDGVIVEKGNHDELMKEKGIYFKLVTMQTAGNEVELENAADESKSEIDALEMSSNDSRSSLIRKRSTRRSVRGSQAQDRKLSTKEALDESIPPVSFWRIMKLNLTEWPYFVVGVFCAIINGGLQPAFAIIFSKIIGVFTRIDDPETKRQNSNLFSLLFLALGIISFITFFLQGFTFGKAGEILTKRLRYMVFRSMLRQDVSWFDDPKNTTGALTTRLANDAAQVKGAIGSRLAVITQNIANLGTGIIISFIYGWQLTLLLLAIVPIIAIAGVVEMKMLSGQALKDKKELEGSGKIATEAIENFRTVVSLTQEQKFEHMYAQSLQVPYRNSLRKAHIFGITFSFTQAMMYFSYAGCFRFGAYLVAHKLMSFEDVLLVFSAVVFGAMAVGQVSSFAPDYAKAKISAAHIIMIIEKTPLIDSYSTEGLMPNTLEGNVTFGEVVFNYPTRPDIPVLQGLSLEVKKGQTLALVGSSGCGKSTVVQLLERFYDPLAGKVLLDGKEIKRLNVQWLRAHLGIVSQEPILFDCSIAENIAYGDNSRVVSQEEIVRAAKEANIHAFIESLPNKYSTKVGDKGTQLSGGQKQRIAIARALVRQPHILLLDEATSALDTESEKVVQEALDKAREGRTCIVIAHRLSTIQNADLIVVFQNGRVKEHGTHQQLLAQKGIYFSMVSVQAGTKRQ

SMILES: CCC(C)(C)C(=O)O[C@H]1C[C@@H](C)C=C2C=C[C@H](C)[C@H](CC[C@@H]3C[C@@H](O)CC(=O)O3)[C@H]21 [Simvastatin]
Multivariate analysis Odds-ratio of paclitaxel dose modification due to peripheral neuropathy [1]: 0.31
Univariate analysis Odds-ratio of paclitaxel dose modification due to peripheral neuropathy [1]: 0.60
increased risk of dose modification due to peripheral neuropathy [1]: not at increased risk

SMILES: CN(C)C(=O)CCSC(SCCC(=O)O)c1cccc(/C=C/c2ccc3ccc(Cl)cc3n2)c1 (centres unmarked) [MK-571]
effect of MRP1 inhibition on vincristine neurotoxicity ([2]; 4 μM MK-571 one hour ahead of vincristine, low vincristine concentrations): substantially increased neurotoxicity

SMILES: CC[C@]1(O)C[C@H]2CN(CCc3c([nH]c4ccccc34)[C@@](C(=O)OC)(c3cc4c(cc3OC)N(C=O)[C@H]3[C@@](O)(C(=O)OC)[C@H](OC(C)=O)[C@]5(CC)C=CCN6CC[C@]43[C@@H]65)C2)C1 [vincristine]
neurite length [2, 9]: shortened in a dose-dependent manner
number of neurites extending from a cluster of sensory neurons [2, 9]: dose-dependent decrease

SMILES: C/C=C/C[C@@H](C)C(=O)[C@H]1C(=O)N[C@@H](C(C)C)C(=O)N(C)CC(=O)N(C)[C@@H](CC(C)C)C(=O)N[C@@H](C(C)C)C(=O)N(C)[C@@H](CC(C)C)C(=O)N[C@@H](C)C(=O)N[C@H](C)C(=O)N(C)[C@@H](CC(C)C)C(=O)N(C)[C@@H](CC(C)C)C(=O)N(C)[C@@H](C(C)C)C(=O)N1C [valspodar]
effect on neuronal morphology without paclitaxel present ([3]; 4 μM valspodar alone): did not affect
effect on neuronal toxicity of paclitaxel (number and length of neurites) ([3]; 4 μM valspodar together with paclitaxel, 24 hours, ANOVA p<0.001): substantially exacerbated

Further lines, with some results ahead:

Multivariate analysis Odds-ratio of paclitaxel dose modification due to peripheral neuropathy [1]: 7.01
Univariate analysis Odds-ratio of paclitaxel dose modification due to peripheral neuropathy [1]: 9.41
increased risk of dose modification due to peripheral neuropathy [1]: 7.0 fold
SMILES: CC(C)c1c(C(=O)Nc2ccccc2)c(-c2ccccc2)c(-c2ccc(F)cc2)n1CC[C@@H](O)C[C@@H](O)CC(=O)O [Atorvastatin]

increase in intracellular accumulation of paclitaxel on inhibition of P-gp [4]: > 3 fold
TRPV1 expression [6]: substantially increased expression
ATF-3 expression [7]: substantially increased expression
neurite length [8]: significantly reduced
number of neurites [8]: significantly reduced
SMILES: CC(=O)O[C@H]1C(=O)[C@@]2(C)[C@H]([C@H](OC(=O)c3ccccc3)[C@]3(O)C[C@H](OC(=O)[C@H](O)[C@@H](NC(=O)c4ccccc4)c4ccccc4)C(C)=C1C3(C)C)[C@]1(OC(C)=O)CO[C@@H]1C[C@@H]2O [Paclitaxel]
damage to sensory neurons [5]: marked damage
